As a reminder, the IC50 is the point on the concentration scale where inhibition reaches its midpoint.

Consider 23 compounds from US7728029B2, “Adamantyl-pyrazole carboxamides as inhibitors of 11β-hdroxysteroid dehydrogenase” (Hoffmann-La Roche Inc., priority 2006, dated 2010).

Assay [1] deals with T1, human 11betaHSD1 (Homo sapiens, UniProt P28845).
T1 construct: stably transfected with full-length human 11betaHSD1 cDNA; expressed in transfected cells; host or cells: HEK-293
As to the kind of experiment: Human Hek Assay: cortisone to cortisol conversion in HEK-293 cells stably transfected with human 11betaHSD1, cortisol by ELISA. To be noted: HEK-293 cells transfected with human 11betaHSD1; 100 nM cortisone, 1 hour; read-out: humHEK (IC50). Format: cell-based. The procedure:
HEK-293 cells stably transfected with full-length human 11betaHSD1 cDNA were propagated and expanded in DMEM high glucose media (Invitrogen Cat# 11995-065), supplemented with 10% FCS (Invitrogen Cat# 10082-147), pen/strep (10 μg/mL), and geneticin (10 μg/mL). One day prior to assay, cells were released from flasks using trypsin/EDTA, centrifuged, and washed with plating media (DMEM high glucose, without phenol red; Invitrogen Cat# 21063-029, supplemented with 2% charcoal stripped FCS; Gemini Cat# A22311P). From a 250,000 cells/mL suspension in plating media, 200 μL of cells were seeded into each well of a 96-well coated plate (BioCoat Cat#356461) and cultured overnight at 37° C. The following day, serially diluted 11betaHSD1 inhibitor compounds dissolved in DMSO were added to plating media supplemented with BSA (2 mg/mL final). The final DMSO concentration was 1%. Media was aspirated from plates, and compounds in media were added to each well. The plates were incubated at 37 degrees C. for 1 hour to allow for cellular uptake of compounds. 10 μL of substrate (cortisone) was then added to each well (100 nM final concentration) and incubated for 1 hour at 37 degrees C. Plates were then transferred to ice and 80 μL of media transferred to a 96-well plate and stored at −30° C.
Quantitation of cortisol in cell media was performed by competitive ELISA using ELISA-Light (Tropix Cat# T10206/EL100S4), anti-cortisol EIA antibody (Assay Designs, Inc. Cat#80-1148), and cortisol-enzyme conjugate (Assay Designs, Inc. Cat# 80-1147). 384-well plates (Falcon Cat#3988) were precoated with anti-mouse IgG (Sigma Cat# M-1397) suspended in 0.9% NaCl (5 mg/mL), 50 μL per well, overnight at 4 degrees C. Plates were washed with PBS, 0.1% Tween-20, then washed with PBS alone. Plates were blocked with Blocking Buffer (Tropix Cat# AI075) for 2 hours at room temperature. The plates were then washed as previously described. Assay samples were thawed, diluted 1:4 in DMEM, 2 mg/mL BSA, 1% DMSO, and 24 μL was transferred to wells of a pre-coated 384-well plate, as well as varying amounts of cortisol standard. To each well, 12 μL of cortisol-conjugate and 12 μL of anti-cortisol EIA antibody were added and incubated 2 hrs at room temperature on a orbital plate shaker. The wells were then emptied by inversion, then washed three times with 100 μL of Wash Buffer (Tropix), and then 2 times with 100 μL of Assay Buffer (Tropix). 60 μL of CDP-STAR (Tropix) was added to each well and incubated 10 minutes at room temperature. Chemiluminescence was measured using a Victor V Reader (Perkin Elmer). Cortisol in each sample was interpolated from a standard curve generated with known amounts of cortisol. IC50 values were calculated using the curve fitting software XLFit3 (IDBS).

Assay [2] addresses T2, human 11-β-HSD1 (Homo sapiens, UniProt P28845).
T2 construct: expressed in transfected cells; host or cells: H4IIe
The assay is described as follows: Human H4IIE Assay: steroid conversion assay in H4IIe cells stably transfected with human 11-β-HSD1 cDNA, cortisol by ELISA. Format: cell-based. As to conditions: H4IIe cells transfected with human 11-β-HSD1; 200 nM cortisone, 120 minutes; read-out: HumH4IIe (IC50). The procedure:
H4IIe cells stably transfected with the human 11-β-HSD1 cDNA (humH4IIe) were maintained in Dulbeccos Modified Essential Medium (DMEM)+10% fetal bovine serum (FBS) containing Penicillin (100 IU/ml) and Streptomycin (100 μg/ml), Geneticin (800 μg/ml) and L-Glutamine (2 mM) at 37° C. in a humidified atmosphere (95% air, 5% CO2).
humH4IIe cells at 80% confluence in a 225 cm^2 flask were washed with PBS then detached with warm Trypsin/EDTA. The cells were counted and resuspended in Dulbeccos Modified Essential Medium lacking phenol red (DMEM) containing 2% stripped serum, at a concentration of 100,000 cells per 200 μl, and plated in a 96-well cell culture plate (precoated with Poly-Lysine). The cells were incubated overnight at 37° C. in a humidified atmosphere (95% air, 5% CO2).
Conversion assays were performed one day after seeding 96-well plates. The media was removed and replaced with 100 ul Dulbeccos Modified Essential Medium without phenol red (DMEM) containing 2 mg/ml Bovine Serum Albumin (BSA)+1% DMSO or test compound dissolved in DMSO.
The cells were incubated with test compound for 60 minutes at 37° C. in a humidified atmosphere (95% air, 5% CO2). After 60 minutes, cortisone was added to 200 nM final, and the cells were incubated for 120 minutes at 37° C. in a humidified atmosphere (95% air, 5% CO2).
The reaction was stopped by transferring 80 μl of media to an empty 96-well plate. Samples were stored at −20° C. until assayed for cortisol concentration using an ELISA method.

T2 sequence (P28845 whole entry): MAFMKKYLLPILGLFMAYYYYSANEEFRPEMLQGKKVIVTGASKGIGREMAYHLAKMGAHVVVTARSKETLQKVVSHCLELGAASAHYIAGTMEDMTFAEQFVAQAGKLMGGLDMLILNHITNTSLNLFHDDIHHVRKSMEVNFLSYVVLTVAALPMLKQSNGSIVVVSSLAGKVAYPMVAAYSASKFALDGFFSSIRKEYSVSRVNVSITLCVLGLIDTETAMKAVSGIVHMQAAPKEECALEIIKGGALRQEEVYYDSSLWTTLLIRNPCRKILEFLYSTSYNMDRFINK
T1 sequence (P28845 whole entry): as above

As for `Cn1ncc(C(=O)NC2C3CC4CC2CC(O)(C4)C3)c1-n1cccc1` (stereo not shown) [Example 1, 1-methyl-5-pyrrol-1-yl-1H-pyrazole-4-carboxylic acid (5-hydroxy-adamantan-2-yl)-amide], the IC50 in assay [1] came to 39.9 nM.
For `Cn1ncc(C(=O)N[C@H]2C3CC4CC2C[C@](O)(C4)C3)c1-n1cccc1` [Example 2, trans-1-Methyl-5-pyrrol-1-yl-1H-pyrazole-4-carboxylic acid (5-hydroxy-adamantan-2-yl)-amide], the IC50 in assay [1] amounted to 22.2 nM.
The same measure, in the same setting: then `Cn1ncc(C(=O)NC2C3CC4CC(C3)CC2C4)c1Cl` (stereo not shown) [Example 5, 5-Chloro-1-methyl-1H-pyrazole-4-carboxylic acid adamantan-2-ylamide], with 189 nM.
In the case of `CC(C)(C)n1ncc(C(=O)NC2C3CC4CC(C3)CC2C4)c1C(F)(F)F` (stereo not shown) [Example 6, 1-tert-butyl-5-trifluoromethyl-1H-pyrazole-4-carboxylic acid adamantan-2-ylamide], in assay [1], the IC50 turned out to be 9.8 nM.
Still for that read-out and setting: then `CC(C)(C)n1ncc(C(=O)N[C@H]2C3CC4CC2C[C@](O)(C4)C3)c1C(F)(F)F` [Example 7, trans-1-tert-butyl-5-trifluoromethyl-1H-pyrazole-4-carboxylic acid (5-hydroxy-adamantan-2-yl)-amide], with 601 nM; and `CC(C)(C)n1ncc(C(=O)N[C@H]2C3CC4CC2C[C@@](O)(C4)C3)c1C(F)(F)F` [Example 8, cis-1-tert-butyl-5-trifluoromethyl-1H-pyrazole-4-carboxylic acid (5-hydroxy-adamantan-2-yl)-amide], with 20.2 nM; and `Cn1ncc(C(=O)N[C@H]2C3CC4CC2C[C@](O)(C4)C3)c1-n1cccn1` [Example 9, trans-2′-Methyl-2′H-[1,3′]bipyrazolyl-4′-carboxylic acid (5-hydroxy-adamantan-2-yl)-amide], with 38.6 nM.
On the same count and under the same terms, under `O=C(NC1C2CC3CC(C2)CC1C3)c1cnn(C2CC2)c1C(F)(F)F` (stereo not shown) [Example 12, 1-cyclopropyl-5-trifluoromethyl-1H-pyrazole-4-carboxylic acid adamantan-2-ylamide] stands 22.2 nM; under `CN1CCN(c2c(C(=O)NC3C4CC5CC(C4)CC3C5)cnn2C)CC1` (stereo not shown) [Example 14, 1-Methyl-5-(4-methyl-piperazin-1-yl)-1H-pyrazole-4-carboxylic acid adamantan-2-ylamide], 23.3 nM.
On the same count and under the same terms, under `Cn1ncc(C(=O)NC2C3CC4CC(C3)CC2C4)c1N1CCOCC1` (stereo not shown) [Example 22, 1-methyl-5-morpholin-4-yl-1H-pyrazole-4-carboxylic acid adamantan-2-ylamide] stands 16.6 nM; under `COCCNc1c(C(=O)NC2C3CC4CC(C3)CC2C4)cnn1C` (stereo not shown) [Example 23, 5-(2-Methoxy-ethylamino)-1-methyl-1H-pyrazole-4-carboxylic acid adamantan-2-ylamide], 71.5 nM; under `COCCN(C)c1c(C(=O)NC2C3CC4CC(C3)CC2C4)cnn1C` (stereo not shown) [Example 32, 5-[(2-Methoxy-ethyl)-methyl-amino]-1-methyl-1H-pyrazole-4-carboxylic acid adamantan-2-ylamide], 26.2 nM.
Turning to `CC(C)(C)n1ncc(C(=O)NC2C3CC4CC(C3)CC2C4)c1-n1cccn1` (stereo not shown) [Example 33, 2′-tert-Butyl-2′H-[1,3′]bipyrazolyl-4′-carboxylic acid adamantan-2-ylamide], the IC50 in assay [1] amounted to 6.8 nM.
On to `CC(C)(C)n1ncc(C(=O)N[C@H]2C3CC4CC2C[C@](O)(C4)C3)c1Cl` [Example 34, trans-1-tert-Butyl-5-chloro-1H-pyrazole-4-carboxylic acid (5-hydroxy-adamantan-2-yl)-amide], for which the IC50 in assay [2] came to 5.6 nM; in assay [1], 19.2 nM.
The matching figures for `CC(C)(C)n1ncc(C(=O)N[C@H]2C3CC4CC2C[C@](O)(C4)C3)c1-n1cccn1` [Example 35, trans-2′-tert-Butyl-2′H-[1,3′]bipyrazolyl-4′-carboxylic acid (5-hydroxy-adamantan-2-yl)-amide]: 0.5 nM and 20 nM.
For `CC(=O)NC12CC3CC(C1)C(NC(=O)c1cnn(C(C)(C)C)c1Cl)C(C3)C2` (stereo not drawn) [Example 46, trans-1-tert-Butyl-5-chloro-1H-pyrazole-4-carboxylic acid (5-acetylamino-adamantan-2-yl)-amide] the same measures were 8.5 nM and 66.2 nM.
For `CC(=O)NC12CC3CC(C1)C(NC(=O)c1cnn(C(C)(C)C)c1C(F)(F)F)C(C3)C2` (stereo not drawn) [Example 48, trans-1-tert-Butyl-5-trifluoromethyl-1H-pyrazole-4-carboxylic acid (5-acetylamino-adamantan-2-yl)-amide] the same measures were 0.3 nM and 18.1 nM.
For `CC(=O)NC12CC3CC(C1)C(NC(=O)c1cnn(C(C)(C)C)c1-n1cccn1)C(C3)C2` (stereo not drawn) [Example 50, trans-2′-tert-Butyl-2′H-[1,3′]bipyrazolyl-4′-carboxylic acid (5-acetylamino-adamantan-2-yl)-amide], the IC50 came to 8 nM in assay [2] and 23.8 nM in assay [1].
As for `Cn1ncc(C(=O)NC2C3CC4CC2CC(NS(C)(=O)=O)(C4)C3)c1-n1cccn1` (stereo not drawn) [Example 53, trans-2′-Methyl-2′H-[1,3′]bipyrazolyl-4′-carboxylic acid (5-methanesulfonylamino-adamantan-2-yl)-amide], the concentration for half-maximal inhibition (IC50) was 6 nM in assay [2] and 76.9 nM in assay [1].
Regarding `COCCOCCn1ncc(C(=O)N[C@H]2C3CC4CC2C[C@](O)(C4)C3)c1-n1cccn1` [Example 76, trans-2′-[2-(2-Methoxyethoxy)-ethyl]-2′H-[1,3′]bipryazolyl-4′-carboxylic acid (5-hydroxyadamantan-2-yl)-amide], in assay [2], the half-maximal inhibitory concentration (IC50) is 15.3 nM.
Still for that read-out and setting: then `CC(C)(C)OCCn1ncc(C(=O)N[C@H]2C3CC4CC2C[C@](O)(C4)C3)c1C(F)(F)F` [Example 77, trans-1-(2-tert-Butoxyethyl)-5-trifluoromethyl-1H-pyrazole-4-carboxylic acid (5-hydroxy-adamantan-2-yl)-amide], with 4.6 nM.
“trans-2′-(2-Methoxyethyl)-2′H-[1,3′]bipyrazolyl-4′-carboxylic acid (5-hydroxy-adamantan-2-yl-amide [Example 73]”: the concentration for half-maximal inhibition (IC50) in assay [2] came to 0.6 nM; in assay [1] it was 22.9 nM.
Consider “trans-2′-Methyl-2′H-[1,3′]bipyrazolyl-4′-carboxylic acid (5-acetylamino-adamantan-2-yl)-amide [Example 45]”, for which the concentration for half-maximal inhibition (IC50) in assay [2] worked out at 5.9 nM; in assay [1], 48.2 nM.
